Measured values from patent US10947188B2, “Small molecule ferroptosis inducers” (THE TRUSTEES OF COLUMBIA UNIVERSITY IN THE CITY OF NEW YORK, priority 2016, dated 2021).

Experiments:
HT-1080 = assay: Modulatory profiling: Alamar Blue viability, lethal compound cotreated with death modulator (EC50, AUC); format: cell-based; parameters: AUC, modulator HT.3MA / AUC, modulator HT.ALLN / AUC HT.ATA / AUC HT.ActD / AUC HT.BHA / AUC HT.BHT / AUC HT.BocD / AUC HT.CHX / AUC HT.Co2+ / AUC HT.DPQ / AUC HT.EGTA / AUC HT.Lmim / AUC HT.NAD+ / AUC HT.Nec-1 / AUC HT.SP600125 / AUC HT.TLCK / AUC HT.U0126: unit not given beside the values; conditions: for AUC HT.ATA: HT-1080, modulator ATA; for AUC HT.ActD: HT-1080, modulator ActD; for AUC HT.BHA: HT-1080, modulator BHA; for AUC HT.BHT: HT-1080, modulator BHT; for AUC HT.BocD: HT-1080, modulator BocD; for AUC HT.CHX: HT-1080, modulator CHX; for AUC HT.Co2+: HT-1080, modulator Co2+; for AUC HT.CspA: HT-1080, modulator CspA; for AUC HT.DPQ: HT-1080, modulator DPQ; for AUC HT.EGTA: HT-1080, modulator EGTA; for AUC HT.Gd3+: HT-1080, modulator Gd3+; for AUC HT.LNAME: HT-1080, modulator LNAME; for AUC HT.Lmim: HT-1080, modulator Lmim; for AUC HT.NAD+: HT-1080, modulator NAD+; for AUC HT.NMMA: HT-1080, modulator NMMA; for HT.atoc (AUC) / HT.bCarotene (AUC) / HT.deferox (AUC) / HT.digoxin (AUC) / HT.trolox (AUC) / HT.zVAD (AUC): HT-1080; for HT.atoc (AUC): modulator atoc; for HT.bCarotene (AUC): modulator bCarotene; for HT.deferox (AUC): modulator deferox; for HT.digoxin (AUC): modulator digoxin; for HT.trolox (AUC): modulator trolox; for HT.zVAD (AUC): modulator zVAD; for AUC, modulator HT.3MA / AUC, modulator HT.ALLN: HT-1080 cells, modulatory profile value (AUC); for AUC, modulator HT.3MA: lethal compound cotreated with modulator 3MA; for AUC, modulator HT.ALLN: lethal compound cotreated with modulator ALLN; as to AUC HT.BHA: reference of the scale not given here; as to AUC HT.EGTA: reference of the scale not given here
BJeLR = assay: as above; format: cell-based, human; parameters: AUC, modulator BJ.Gd3+ / AUC, modulator BJ.LNAME / AUC, modulator BJ.Lmin / AUC, modulator BJ.3MA / AUC, modulator BJ.ALLN / AUC, modulator BJ.Boc D / AUC, modulator BJ.CHX / AUC, modulator BJ.Co2+ / AUC, modulator BJ.Nec-1 / AUC, modulator BJ.Pepstatin / AUC, modulator BJ.TLCK / AUC, modulator BJ.atoc / AUC, modulator BJ.trolox / AUC, modulator BJ.zVAD: unit not given beside the values; conditions: BJeLR cells, modulatory profile value (AUC); for AUC, modulator BJ.3MA: lethal compound cotreated with modulator 3MA; for AUC, modulator BJ.ALLN: lethal compound cotreated with modulator ALLN; for AUC, modulator BJ.Boc D: lethal compound cotreated with modulator Boc D; for AUC, modulator BJ.CHX: lethal compound cotreated with modulator CHX; for AUC, modulator BJ.Co2+: lethal compound cotreated with modulator Co2+; for AUC, modulator BJ.DPQ: lethal compound cotreated with modulator DPQ; for AUC, modulator BJ.Gd3+: lethal compound cotreated with modulator Gd3+; for AUC, modulator BJ.LNAME: lethal compound cotreated with modulator LNAME; for AUC, modulator BJ.Lmin/NAD+: lethal compound cotreated with modulator Lmin/NAD+; for AUC, modulator BJ.Lmin: lethal compound cotreated with modulator Lmin; for AUC, modulator BJ.NAD+: lethal compound cotreated with modulator NAD+; for AUC, modulator BJ.NMMA: lethal compound cotreated with modulator NMMA; for AUC, modulator BJ.Nec-1: lethal compound cotreated with modulator Nec-1; for AUC, modulator BJ.Pepstatin: lethal compound cotreated with modulator Pepstatin; for AUC, modulator BJ.TLCK: lethal compound cotreated with modulator TLCK; for AUC, modulator BJ.atoc: lethal compound cotreated with modulator atoc; for AUC, modulator BJ.trolox: lethal compound cotreated with modulator trolox; for AUC, modulator BJ.zVAD: lethal compound cotreated with modulator zVAD; as to AUC, modulator BJ.3MA: reference of the scale not given here; as to AUC, modulator BJ.ALLN: reference of the scale not given here; as to AUC, modulator BJ.Boc D: reference of the scale not given here; as to AUC, modulator BJ.CHX: reference of the scale not given here; as to AUC, modulator BJ.Co2+: reference of the scale not given here; as to AUC, modulator BJ.DPQ: reference of the scale not given here; as to AUC, modulator BJ.Gd3+: reference of the scale not given here; as to AUC, modulator BJ.LNAME: reference of the scale not given here; as to AUC, modulator BJ.NAD+: reference of the scale not given here; as to AUC, modulator BJ.NMMA: reference of the scale not given here; as to AUC, modulator BJ.Nec-1: reference of the scale not given here; as to AUC, modulator BJ.Pepstatin: reference of the scale not given here; as to AUC, modulator BJ.TLCK: reference of the scale not given here

CCOC(=O)[C@@H]1[C@@H](c2ccccc2)C(=O)CCN1NC(=O)c1ccccc1 [CIL89]
AUC HT.ATA (HT-1080): 0.05896
AUC HT.ActD (HT-1080): 0.03977
AUC HT.BHA (HT-1080): −0.006147
AUC HT.BHT (HT-1080): −0.1188
AUC HT.BocD (HT-1080): −0.004667
AUC HT.CHX (HT-1080): −0.008693
AUC HT.Co2+ (HT-1080): 0.008377
AUC HT.CspA (HT-1080): −0.06906
AUC HT.DPQ (HT-1080): −0.005287
AUC HT.EGTA (HT-1080): 0.04226
AUC HT.Gd3+ (HT-1080): −0.04594
AUC HT.LNAME (HT-1080): 0.003061
AUC HT.Lmim (HT-1080): 0.02342
AUC HT.NAD+ (HT-1080): 0.02662
AUC HT.NMMA (HT-1080): −0.009041
HT.atoc (AUC) (HT-1080): 0.0671
HT.bCarotene (AUC) (HT-1080): 0.01857
HT.deferox (AUC) (HT-1080): 0.04587
HT.digoxin (AUC) (HT-1080): 0.01146
HT.trolox (AUC) (HT-1080): −0.02147
HT.zVAD (AUC) (HT-1080): 0.03058
AUC, modulator BJ.3MA (BJeLR): −0.01648
AUC, modulator BJ.ALLN (BJeLR): −0.1204
AUC, modulator BJ.Boc D (BJeLR): 0.03243
AUC, modulator BJ.CHX (BJeLR): 0.1968
AUC, modulator BJ.Co2+ (BJeLR): 0.01721
AUC, modulator BJ.DPQ (BJeLR): −0.02598
AUC, modulator BJ.Gd3+ (BJeLR): −0.07038
AUC, modulator BJ.LNAME (BJeLR): 0.03646
AUC, modulator BJ.Lmin/NAD+ (BJeLR): 0.04069
AUC, modulator BJ.Lmin (BJeLR): 0.03551
AUC, modulator BJ.NAD+ (BJeLR): −0.03932
AUC, modulator BJ.NMMA (BJeLR): −0.02344
AUC, modulator BJ.Nec-1 (BJeLR): −0.02957
AUC, modulator BJ.Pepstatin (BJeLR): −0.006292
AUC, modulator BJ.TLCK (BJeLR): −0.06676

CC1=CC(C)(C)Nc2ccc(OC(=O)c3ccco3)cc21 [CIL2]
AUC HT.ATA (HT-1080): 0.03084
AUC HT.ActD (HT-1080): −0.005228
AUC HT.BHA (HT-1080): −0.03767
AUC HT.BHT (HT-1080): −0.1327
AUC HT.BocD (HT-1080): 0.1395
AUC HT.CHX (HT-1080): 0.1414
AUC HT.Co2+ (HT-1080): −0.132
AUC HT.CspA (HT-1080): 0.01224
AUC HT.DPQ (HT-1080): −0.003125
AUC HT.EGTA (HT-1080): −0.005627
AUC HT.Gd3+ (HT-1080): −0.02304
AUC HT.LNAME (HT-1080): 0.02625
AUC HT.Lmim (HT-1080): −0.03013
AUC HT.NAD+ (HT-1080): 0.04925
AUC HT.NMMA (HT-1080): −0.03029
AUC HT.Nec-1 (HT-1080; HT-1080, modulator Nec-1): −0.01273
AUC HT.Pepstatin (HT-1080; HT-1080, modulator Pepstatin): 0.008816
AUC HT.SP600125 (HT-1080; HT-1080, modulator SP600125): −0.003684
AUC HT.TLCK (HT-1080; HT-1080, modulator TLCK): 0.02037
AUC HT.U0126 (HT-1080; HT-1080, modulator U0126): 0.02089
HT.atoc (AUC) (HT-1080): 0.04757
HT.bCarotene (AUC) (HT-1080): −0.02687
HT.deferox (AUC) (HT-1080): 0.02963
HT.digoxin (AUC) (HT-1080): −0.01222
HT.trolox (AUC) (HT-1080): −0.03094
HT.zVAD (AUC) (HT-1080): −0.02828
AUC, modulator HT.3MA (HT-1080): 0.07178
AUC, modulator HT.ALLN (HT-1080): 0.05292
AUC, modulator BJ.3MA (BJeLR): 0.06431
AUC, modulator BJ.ALLN (BJeLR): −0.03978
AUC, modulator BJ.Boc D (BJeLR): −0.03808
AUC, modulator BJ.CHX (BJeLR): 0.03999
AUC, modulator BJ.Co2+ (BJeLR): −0.1362
AUC, modulator BJ.DPQ (BJeLR): 0.003929
AUC, modulator BJ.Gd3+ (BJeLR): 0.01322
AUC, modulator BJ.LNAME (BJeLR): −0.004423
AUC, modulator BJ.Lmin/NAD+ (BJeLR): −0.01944
AUC, modulator BJ.Lmin (BJeLR): 0.008318
AUC, modulator BJ.NAD+ (BJeLR): 0.03383
AUC, modulator BJ.NMMA (BJeLR): −0.005234
AUC, modulator BJ.Nec-1 (BJeLR): 0.0318
AUC, modulator BJ.Pepstatin (BJeLR): 0.05923
AUC, modulator BJ.TLCK (BJeLR): 0.06974
AUC, modulator BJ.atoc (BJeLR): −0.01149
AUC, modulator BJ.trolox (BJeLR): 0.001657
AUC, modulator BJ.zVAD (BJeLR): −0.003959

O=c1c(N2CCCC2)c(Cl)cnn1-c1ccccc1 [CIL20]
AUC HT.ATA (HT-1080): −0.001276
AUC HT.ActD (HT-1080): −0.006608
AUC HT.BHA (HT-1080): 0.0001715
AUC HT.BHT (HT-1080): −0.08075
AUC HT.BocD (HT-1080): 0.01009
AUC HT.CHX (HT-1080): 0.1212
AUC HT.Co2+ (HT-1080): 0.1205
AUC HT.CspA (HT-1080): −0.05648
AUC HT.DPQ (HT-1080): −0.03779
AUC HT.EGTA (HT-1080): −0.01805
AUC HT.Gd3+ (HT-1080): −0.02607
AUC HT.LNAME (HT-1080): 0.01703
AUC HT.Lmim (HT-1080): 0.002914
AUC HT.NAD+ (HT-1080): 0.05985
AUC HT.NMMA (HT-1080): −0.0209
HT.atoc (AUC) (HT-1080): 0.0292
HT.bCarotene (AUC) (HT-1080): 0.008618
HT.deferox (AUC) (HT-1080): 0.03912
HT.digoxin (AUC) (HT-1080): 0.01851
HT.trolox (AUC) (HT-1080): 0.03002
HT.zVAD (AUC) (HT-1080): −0.02079
AUC, modulator HT.3MA (HT-1080): 0.004881
AUC, modulator HT.ALLN (HT-1080): 0.09673
AUC, modulator BJ.3MA (BJeLR): 0.055
AUC, modulator BJ.ALLN (BJeLR): −0.09098
AUC, modulator BJ.Boc D (BJeLR): −0.06373
AUC, modulator BJ.CHX (BJeLR): −0.009677
AUC, modulator BJ.Co2+ (BJeLR): 0.04763
AUC, modulator BJ.DPQ (BJeLR): −0.02696
AUC, modulator BJ.Gd3+ (BJeLR): 0.04266
AUC, modulator BJ.LNAME (BJeLR): −0.001747
AUC, modulator BJ.Lmin/NAD+ (BJeLR): −0.03734
AUC, modulator BJ.Lmin (BJeLR): −0.02603
AUC, modulator BJ.NAD+ (BJeLR): 0.03043
AUC, modulator BJ.NMMA (BJeLR): −0.01046
AUC, modulator BJ.Nec-1 (BJeLR): 0.0115
AUC, modulator BJ.Pepstatin (BJeLR): −0.002516
AUC, modulator BJ.TLCK (BJeLR): −0.00743
AUC, modulator BJ.atoc (BJeLR): −0.005113
AUC, modulator BJ.trolox (BJeLR): 0.02308
AUC, modulator BJ.zVAD (BJeLR): −0.04036
